What was measured:
[1] = Temperature sensitivity, residual antimicrobial activity; type: physicochemical; details: residual antimicrobial activity by well diffusion assay at RT; for Residual activity (%), temperature 100 ºC: 100 °C
Procedure: (§1) Sensitivity of purified peptides toward temperature, pH, and non-specific proteases was confirmed by performing bioassays. The pH stability was determined by adjusting the pH 2.0–12.0 of peptide aliquots (using 10 mM HCl or NaOH) and incubating for 4 h at room temperature. Samples were neutralized to pH 7.0 before processing for antimicrobial assay. To determine temperature susceptibility, peptides were incubated at different temperatures ranging from 37 to 100°C for 1 h and 121°C for 15 min and residual antimicrobial activity was determined at RT by well diffusion assay. Proteolytic enzymes trypsin and proteinase K (Sigma, United States) were used at three different concentrations (0.1, 1.0, and 5.0 mg/ml) to observe their effect on the peptide. The enzyme solutions were prepared in 50 mM phosphate buffer (pH 7.0). All reactions were performed at 37°C for 6 h followed by deactivation of enzyme by heating the solution in boiling water for 5 min before performing the activity assay.

[2] = pH stability, residual antimicrobial activity; type: physicochemical; details: for Residual activity (%), pH 2.0: pH 2.0 (10 mM HCl or NaOH)
Procedure: as §1

[3] = system: C. albicans MTCC 183; assay: Scanning electron microscopy of treated cells; type: cell-based, Candida albicans; details: 2X and 5X MIC, 37°C overnight
Procedure: The effect of peptide on cell membrane was determined by scanning electron microscopy (SEM) and transmission electron microscopy (TEM) after treatment with AMPs. For this, test strains S. aureus MTCC 1430 and C. albicans MTCC 183 were cultured to mid-log phase in respective media. The cells were harvested by centrifugation at 10,000 × g for 10 min, washed thrice with 1X PBS, and re-suspended to adjust an OD600 of 0.2. […] Following the incubation, cells were processed for SEM and TEM as described ([Raje et al., 2006]). The specimens were completely dried using freeze drier, coated with gold, and visualized under a scanning electron microscope (ZEISS, Germany). For TEM (JEOL, JEM 2100, United States), cells were treated with peptide, washed, and subjected to negative stain 0.1% sodium phosphotungstate (Sigma, United States) for visualization. Effect of A52 lipopeptide on fungal spore was observed through a phase contrast microscope (Nickon H600L, Japan).

Glu^1-Leu/Ile^2-Leu^3-Val^4-Asp^5-Leu^6-Leu/Ile^7 and a β-OH hexadecane fatty acid chain (lariat or depsi) [Lipopeptide A52, cyclic surfactin-like lipopeptide, 7 amino acids and C16 β-hydroxy fatty acid, 1061.9 Da, from B. subtilis strain A52]
Residual activity (%), temperature 37 ºC ([1]; 37 °C, 1h): 100% | Residual activity (%), temperature 50 ºC ([1]; 50 °C, 1h): 100% | Residual activity (%), temperature 60 ºC ([1]; 60 °C, 1h): 100% | Residual activity (%), temperature 70 ºC ([1]; 70 °C, 1h): 100% | Residual activity (%), temperature 80 ºC ([1]; 80 °C, 1h): 100% | Residual activity (%), temperature 100 ºC ([1]; 1h, listed as Lipopeptide): 100% | Residual activity (%), temperature 100 ºC ([1]; 1h, listed as surfactin-like lipopeptide): not affected | Residual activity (%), temperature 121 ºC (autoclaving) ([1]; 121 °C, 15 min (15 lbs)): 89.0% | Residual activity (%), pH 2.0 ([2]; 4h/ 25°C, neutralized to pH 7.0 before antimicrobial assay, listed as Lipopeptide): Nil | Residual activity (%), pH 2.0 ([2]; 4h/ 25°C, neutralized to pH 7.0 before antimicrobial assay, listed as surfactin-like lipopeptide): complete loss in activity | Residual activity (%), pH 4.0 ([2]; pH 4.0 (10 mM HCl or NaOH), 4h/ 25°C, neutralized to pH 7.0 before antimicrobial assay): 100% | Residual activity (%), pH 6.0 ([2]; pH 6.0 (10 mM HCl or NaOH), 4h/ 25°C, neutralized to pH 7.0 before antimicrobial assay): 100% | Residual activity (%), pH 7.0 ([2]; pH 7.0, 4h/ 25°C): 100% | Residual activity (%), pH 8.0 ([2]; pH 8.0 (10 mM HCl or NaOH), 4h/ 25°C, neutralized to pH 7.0 before antimicrobial assay): 100% | Residual activity (%), pH 10.0 ([2]; pH 10.0 (10 mM HCl or NaOH), 4h/ 25°C, neutralized to pH 7.0 before antimicrobial assay): 100% | Residual activity (%), pH 12.0 ([2]; pH 12.0 (10 mM HCl or NaOH), 4h/ 25°C, neutralized to pH 7.0 before antimicrobial assay): Nil | cell morphology in SEM images [3]: disintegrated outer cell membrane

Reference: publication PMC7300217, “Surfactin Like Broad Spectrum Antimicrobial Lipopeptide Co-produced With Sublancin From Bacillus subtilis Strain A52: Dual Reservoir of Bioactives” (Frontiers in Microbiology, 2020)
